Earlier results, collected in PubChem BioAssay AID1259409 (Chemical Carcinogenesis Research Information System (CCRIS), 2018).

System: rodent chemically induced tumor inhibition, incidence and multiplicity
Test: CCRIS tumor inhibitor studies
Details: for outcome: Target Tissue: Type of Lesion: THYROID GLAND: ADENOMA

## C=C1C[C@H]2[C@@H]3CC[C@H](OC(C)=O)[C@@]3(C)CC[C@@H]2[C@@]2(C)CCC(=O)C=C12
Carcinogen: NONE USED, Dose [Inhibitor]: 0, 1 SILASTIC CAPSULE (1.5, 2.0, AND 15 MM IN INNER AND OUTER DIAMETERS AND LENGTH, RESPECTIVELY) REPLACED AFTER 2 MO IN, Route [Inhibitor]: SUBCUTANEOUS IMPLANT, Species: MOUSE, Strain/Sex: SHN/FEMALE, Target Tissue: Type of Lesion: MAMMARY GLAND: TUMOR, Promoter: NONE USED
  tumour outcome (control, treated, inhibition, significance): 100%, 75%, 25%, p<0.01

## C#CCCCc1ccccc1
Carcinogen: 4-(METHYLNITROSAMINO)-1-(3-PYRIDYL)-1-BUTANONE, 64091-91-4, Dose [Inhibitor]: 0, 5 UMOL IN 0.1 ML CORN OIL ONCE 2 HR PRIOR TO CARCINOGEN DOSE (STUDY DURATION: 16 WK), Route [Inhibitor]: GAVAGE, Species: MOUSE, Strain/Sex: STRAIN-A/FEMALE, Target Tissue: Type of Lesion: LUNG: ADENOMA, Dose [Carcinogen]: 10 UMOL IN 0.1 ML SALINE ONCE, Promoter: NONE USED
  tumour outcome (control, treated, inhibition, significance): 100%, 25%, 75%, p<0.01

## O=C1CCCO1
Carcinogen: N-METHYL-N'-NITRO-N-NITROSOGUANIDINE, 70-25-7, Dose [Inhibitor]: 0, 200 MG/KG/BW SUSPENSION IN OLIVE OIL 1/2 D BEGINNING POST CARCINOGEN TREATMENT AND CONTINUING FOR DURATION OF STUDY (, Route [Inhibitor]: SUBCUTANEOUS, Species: RAT, Strain/Sex: WISTAR/MALE, Target Tissue: Type of Lesion: STOMACH: ADENOCARCINOMA, Dose [Carcinogen]: 50 UG/ML IN DRINKING WATER FOR 25 WK, Promoter: NONE USED
  tumour outcome (control, treated, inhibition, significance): 16/20 (80%), 13/20 (65%), 19%, not significant

## O=C(O)[C@@H](O)[C@@H](O)[C@H](O)[C@@H](O)C(=O)O
Carcinogen: 7,12-DIMETHYLBENZ[A]ANTHRACENE, 57-97-6, Dose [Inhibitor]: 0, 2% IN DIET FOR THE DURATION OF STUDY BEGINNING 1 WK PRIOR TO CARCINOGEN DOSE (STUDY DURATION: 105 WK), Route [Inhibitor]: ORAL, Species: RAT, Strain/Sex: SPRAGUE-DAWLEY/FEMALE, Target Tissue: Type of Lesion: MAMMARY GLAND: TUMOR, Dose [Carcinogen]: 15 MG IN 1 ML SESAME OIL ONCE, Promoter: NONE USED
  tumour outcome (control, treated, inhibition, significance): 88%, 80%, 9%, not significant
Carcinogen: 7,12-DIMETHYLBENZ[A]ANTHRACENE, 57-97-6, Dose [Inhibitor]: 0, 128 MMOL/KG OF DIET FOR 15.5 WK BEGINNING 10 D POST CARCINOGEN DOSE (STUDY DURATION: 17 WK), Route [Inhibitor]: ORAL, Species: RAT, Strain/Sex: SPRAGUE-DAWLEY/FEMALE, Target Tissue: Type of Lesion: MAMMARY GLAND: TUMOR, Dose [Carcinogen]: 15 MG IN 1 ML OF SESAME OIL ONCE AT 50 D OF AGE, Promoter: NONE USED
  tumour outcome (control, treated, inhibition, significance): 92%, 58%, 37%, not calculated
Carcinogen: 7,12-DIMETHYLBENZ[A]ANTHRACENE, 57-97-6, Dose [Inhibitor]: 0, 128 MMOL/KG OF DIET FOR 18.5 WK BEGINNING 10 D PRIOR TO CARCINOGEN DOSE (STUDY DURATION: 18.5 WK), Route [Inhibitor]: ORAL, Species: RAT, Strain/Sex: SPRAGUE-DAWLEY/FEMALE, Target Tissue: Type of Lesion: MAMMARY GLAND: TUMOR, Dose [Carcinogen]: 15 MG IN 1 ML OF SESAME OIL ONCE AT 50 D OF AGE, Promoter: NONE USED
  tumour outcome (control, treated, inhibition, significance): 83%, 50%, 40%, not calculated
Carcinogen: 7,12-DIMETHYLBENZ[A]ANTHRACENE, 57-97-6, Dose [Inhibitor]: 0, 128 MMOL/KG OF DIET FOR 20 D BEGINNING 10 D PRIOR TO CARCINOGEN DOSE (STUDY DURATION: 18.5 WK), Route [Inhibitor]: ORAL, Species: RAT, Strain/Sex: SPRAGUE-DAWLEY/FEMALE, Target Tissue: Type of Lesion: MAMMARY GLAND: TUMOR, Dose [Carcinogen]: 15 MG IN 1 ML OF SESAME OIL ONCE AT 50 D OF AGE, Promoter: NONE USED
  tumour outcome (control, treated, inhibition, significance): 100%, 82%, 18%, not calculated
Carcinogen: 7,12-DIMETHYLBENZ[A]ANTHRACENE, 57-97-6, Dose [Inhibitor]: 32 MMOL/KG OF CHOW DIET IN 25 ML OF THE VEHICLE (ETHANOL/TRICAPRYLIN 1:4 (VOL/VOL) PLUS 6% (WT/VOL) ALPHA-TOCOPHEROL) BE, Route [Inhibitor]: ORAL, Species: RAT, Strain/Sex: SPRAGUE-DAWLEY/FEMALE, Target Tissue: Type of Lesion: MAMMARY GLAND: TUMOR, Dose [Carcinogen]: 75 MG/KG BW IN 1.0 ML SESAME OIL ONCE, Promoter: NONE USED
  tumour outcome (control, treated, inhibition, significance): 70%, 55%, 21%, not significant
Carcinogen: 7,12-DIMETHYLBENZ[A]ANTHRACENE, 57-97-6, Dose [Inhibitor]: 64 MMOL/KG OF CHOW DIET IN 25 ML OF THE VEHICLE (ETHANOL/TRICAPRYLIN 1:4 (VOL/VOL) PLUS 6% (WT/VOL) ALPHA-TOCOPHEROL) BE, Route [Inhibitor]: ORAL, Species: RAT, Strain/Sex: SPRAGUE-DAWLEY/FEMALE, Target Tissue: Type of Lesion: MAMMARY GLAND: TUMOR, Dose [Carcinogen]: 75 MG/KG BW IN 1.0 ML SESAME OIL ONCE, Promoter: NONE USED
  tumour outcome (control, treated, inhibition, significance): 70%, 55%, 21%, not significant
Carcinogen: 7,12-DIMETHYLBENZ[A]ANTHRACENE, 57-97-6, Dose [Inhibitor]: 128 MMOL/KG OF CHOW DIET IN 25 ML OF THE VEHICLE (ETHANOL/TRICAPRYLIN 1:4 (VOL/VOL) PLUS 6% (WT/VOL) ALPHA-TOCOPHEROL) B, Route [Inhibitor]: ORAL, Species: RAT, Strain/Sex: SPRAGUE-DAWLEY/FEMALE, Target Tissue: Type of Lesion: MAMMARY GLAND: TUMOR, Dose [Carcinogen]: 75 MG/KG BW IN 1.0 ML SESAME OIL ONCE, Promoter: NONE USED
  tumour outcome (control, treated, inhibition, significance): 70%, 35%, 50%, not significant
Carcinogen: AZOXYMETHANE [25843-45-2], Dose [Inhibitor]: 3.5% IN DIET FOR 38 WK BEGINNING 1 WK POST LAST CARCINOGEN DOSE (STUDY DURATION: 40 WK), Route [Inhibitor]: ORAL, Species: RAT, Strain/Sex: F344/MALE, Target Tissue: Type of Lesion: COLON: TUMOR, Dose [Carcinogen]: 15 MG/KG BW 1X/WK FOR 2 WK (STUDY DURATION: 40 WK), Promoter: NONE
  tumour outcome (control, treated, inhibition, significance): 15/26 (57.7%), 6/24 (25.0%), 57%, p<0.05

## CCNc1nc(Cl)nc(NC(C)C)n1
Carcinogen: N-NITROSOBIS(2-HYDROXYPROPYL)AMINE, 53609-64-6, Dose [Inhibitor]: 0, 400 PPM IN DIET FOR 25 WK BEGINNING 9 WK POST CARCINOGEN TREATMENT (STUDY DURATION: 35 WK), Route [Inhibitor]: ORAL, Species: RAT, Strain/Sex: F344/FEMALE, Dose [Carcinogen]: 2000 MG/KG 1 WK POST BILATERAL OVARIECTOMY, Promoter: SULFADIMETHOXINE, 122-11-2
  outcome: 0/12 (0%), 0/15 (0%), 0%, not significant
Carcinogen: N-NITROSOBIS(2-HYDROXYPROPYL)AMINE, 53609-64-6, Dose [Inhibitor]: 0, 400 PPM IN DIET FOR 25 WK BEGINNING 9 WK POST CARCINOGEN TREATMENT (STUDY DURATION: 35 WK), Route [Inhibitor]: ORAL, Species: RAT, Strain/Sex: F344/FEMALE, Target Tissue: Type of Lesion: THYROID GLAND: CARCINOMA, Dose [Carcinogen]: 2000 MG/KG 1 WK POST BILATERAL OVARIECTOMY, Promoter: SULFADIMETHOXINE, 122-11-2
  tumour outcome (control, treated, inhibition, significance): 10/12 (83%), 9/15 (60%), 28%, not significant
Carcinogen: N-NITROSOBIS(2-HYDROXYPROPYL)AMINE, 53609-64-6, Dose [Inhibitor]: 0, 400 PPM IN DIET FOR 27 WK BEGINNING 9 WK POST CARCINOGEN TREATMENT (STUDY DURATION: 37 WK), Route [Inhibitor]: ORAL, Species: RAT, Strain/Sex: F344/FEMALE, Dose [Carcinogen]: 2000 MG/KG BW 1 WK POST BILATERAL OVARIECTOMY, Promoter: SULFADIMETHOXINE, 122-11-2
  outcome: 0/12 (0%), 0/15 (0%), 0%, not significant
Carcinogen: N-NITROSOBIS(2-HYDROXYPROPYL)AMINE, 53609-64-6, Dose [Inhibitor]: 0, 400 PPM IN DIET FOR 27 WK BEGINNING 9 WK POST CARCINOGEN TREATMENT (STUDY DURATION: 37 WK), Route [Inhibitor]: ORAL, Species: RAT, Strain/Sex: F344/FEMALE, Target Tissue: Type of Lesion: THYROID GLAND: CARCINOMA, Dose [Carcinogen]: 2000 MG/KG BW 1 WK POST BILATERAL OVARIECTOMY, Promoter: SULFADIMETHOXINE, 122-11-2
  tumour outcome (control, treated, inhibition, significance): 10/12 (83%), 8/15 (53%), 36%, not significant
